From patent publication US20240041042A1, “1-(PYRIDYL)-5-AZINYLPYRAZOLE DERIVATIVES, AND THEIR USE FOR CONTROL OF UNDESIRED PLANT GROWTH” (Bayer Aktiengesellschaft, priority 2020, published 2024)
Where two headings read alike, the source gives them in different places.

Assays:
Assay type in all cases: in vivo
[1] = tested on: Verconica persica (VERPE); assay: Pre-emergence herbicidal action against VERPE; conditions: dosage 320 g/ha
Method in brief: (§1)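 Herbicide applied to soil before seedling emergence, at 600 l/ha spray volume with 0.5% additive and rates up to 320 g/ha. Evaluation: visual percentage effect, about 3 weeks later, greenhouse-grown pots compared with untreated ones.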

Brassica napus (BRSNW) [2] = conditions: crop plant compatibility, in comparison to untreated controls
Method in brief: (§2)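 Scoring: visual, % of untreated control, about 3 weeks after a pre-emergence application to the soil surface. Application used WP or EC formulations diluted in water with 0.5% additive at 600 l/ha; dosage levels are marked by suffixes a, b and c.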

Glycine max (GLXMA) [3] = conditions: pre-emergence, crop plant compatibility, in comparison to untreated controls
Method in brief: as §2

Oryza sativa (ORYSA) [4] = conditions: pre-emergence, crop plant compatibility, in comparison to untreated controls
Method in brief: as §2

[5] = tested on: Triticum aestivum (TRZAS); conditions: pre-emergence, crop plant compatibility, in comparison to untreated controls
Method in brief: as §2

Zea mays (ZEAMX) [6] = conditions: pre-emergence, crop plant compatibility, in comparison to untreated controls
Method in brief: as §2

Oryza sativa (ORYSA) [7] = conditions: crop plant compatibility
Method in brief: (§3)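 Effects were read visually as % versus untreated controls (0% = no effect, 100% = death) about 3 weeks post-treatment. Application was a post-emergence spray at the one-leaf stage of WP/EC formulations with 0.5% additive at 600 l/ha. Different dosages are denoted a, b and c.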

[8] = tested on: Triticum aestivum (TRZAS); conditions: crop plant compatibility, effect vs untreated controls
Method in brief: as §3

Zea mays (ZEAMX) [9] = conditions: for Post-emergence action against ZEAMX in % (crop plant compatibility): 20 g/ha, effect in comparison to untreated controls; for Post-emergence action against ZEAMX in %: crop plant compatibility, effect vs untreated controls
Method in brief: as §3

Glycine max (GLXMA) [10] = assay: Post-emergence crop plant compatibility, GLXMA; conditions: for Post-emergence action against GLXMA in %: effect in comparison to untreated controls
Method in brief: as §3

Brassica napus (BRSNW) [11] = assay: Post-emergence crop plant compatibility, BRSNW; conditions: effect in comparison to untreated controls
Experimental: Seeds of monocotyledonous and dicotyledonous weeds and crop plants are placed in sandy loam in plastic or organic planting pots, covered with soil and cultivated in a greenhouse under controlled growth conditions. 2 to 3 weeks after sowing, the test plants are treated at the one-leaf stage. The compounds of the invention, formulated in the form of wettable powders (WP) or as emulsion concentrates (EC), are then sprayed onto the green parts of the plants as aqueous suspension or emulsion with addition of 0.5% additive at a water application rate of 600 l/ha (converted). After the test plants have been kept in the greenhouse under optimum growth conditions for about 3 weeks, the activity of the preparations is rated visually in comparison to untreated controls. For example, 100% activity=the plants have died, 0% activity=like control plants.
The observed effects on selected crop plants are reported here in comparison to the untreated controls (values in %). The appendices “a”, “b” and “c” give differentiation by dosage used with otherwise the same crop plants tested.

Viola tricolor (VIOTR) = assay: Pre-emergence herbicidal action against VIOTR; conditions: 320 g/ha, Viola tricolor
Method in brief: as §1

[12] = 20 g/ha, effect vs untreated controls
[13] = 80 g/ha, effect in comparison to untreated controls

Pre-emergence action against BRSNW in % (Brassica napus (BRSNW) [2]; 80 g/ha) | Pre-emergence action against BRSNW in % (Brassica napus (BRSNW) [2]; 320 g/ha) | Pre-emergence action against GLXMA in % (Glycine max (GLXMA) [3]; 320 g/ha) | Pre-emergence action against ORYSA in % (Oryza sativa (ORYSA) [4]; 80 g/ha) | Pre-emergence action against ORYSA in % (Oryza sativa (ORYSA) [4]; 320 g/ha) | Pre-emergence action against TRZAS in % ([5]; 80 g/ha) | Pre-emergence action against TRZAS in % ([5]; 320 g/ha) | Pre-emergence action against ZEAMX in % (Zea mays (ZEAMX) [6]; 80 g/ha) | Pre-emergence action against ZEAMX in % (Zea mays (ZEAMX) [6]; 320 g/ha) | Post-emergence action against ORYSA in % (Oryza sativa (ORYSA) [7]; [12]) | Post-emergence action against ORYSA in % (Oryza sativa (ORYSA) [7]; [13]) | Post-emergence action against TRZAS in % ([8]; 20 g/ha) | Post-emergence action against TRZAS in % ([8]; 80 g/ha) | Post-emergence action against ZEAMX in % (crop plant compatibility) (Zea mays (ZEAMX) [9]) | Post-emergence action against ZEAMX in % (Zea mays (ZEAMX) [9]; 80 g/ha) | Post-emergence action against GLXMA in % (Glycine max (GLXMA) [10]; 20 g/ha) | Post-emergence action against GLXMA in % (Glycine max (GLXMA) [10]; 80 g/ha) | Post-emergence action against BRSNW in % (Brassica napus (BRSNW) [11]; 20 g/ha) | Post-emergence action against BRSNW in % (Brassica napus (BRSNW) [11]; 80 g/ha) | Pre-emergence action against GLXMA in % (Glycine max (GLXMA) [3]; 80 g/ha) | Structure (SMILES) | other results
10% | 10% | 20% | 0% | 10% | 0% | 10% | 0% | 10% | 0% | 0% | 0% | 0% | 0% | 10% | 0% | 10% | 0% | 10% | – | CCOC(=O)C1CCN(C(=O)COc2nn(-c3ccccn3)c(-c3ccc(F)nc3)c2Br)CC1 [Example I-112] | Pre-emergence action against VERPE in % [1]: 80%
0% | 0% | 20% | 20% | 20% | 0% | 10% | 0% | 0% | – | 0% | – | 0% | – | 0% | – | 0% | – | 10% | 20% | O=C(CSc1nn(-c2ccccn2)c(-c2cncc(F)c2)c1Br)NS(=O)(=O)c1ccccc1 [Example I-200] | Pre-emergence action against VIOTR in % (Viola tricolor (VIOTR)): 100%; Post-emergence action against ORYSA in % (Oryza sativa (ORYSA) [7]; 320 g/ha, effect in comparison to untreated controls): 0%; Post-emergence action against TRZAS in % ([8]; 320 g/ha): 0%; Post-emergence action against ZEAMX in % (Zea mays (ZEAMX) [9]; 320 g/ha): 0%; Post-emergence action against GLXMA (Glycine max (GLXMA) [10]; 320 g/ha, effect vs untreated controls): 0%; Post-emergence action against BRSNW in % (Brassica napus (BRSNW) [11]; 320 g/ha): 20%
10% | 20% | 0% | 0% | 10% | 0% | 10% | 10% | 10% | 0% | 10% | 0% | 20% | 0% | 10% | 0% | 10% | 10% | – | 0% | COC(=O)C1CCCN(C(=O)COc2nn(-c3ccccn3)c(-c3ccc(F)nc3)c2Br)C1 (stereo not drawn) [Example I-108] | –
